Consider seven compounds from article PMC5505648 (Bioorganic & medicinal chemistry, 2017).

Series [1] can be described thus: Oral bioavailability / serum pharmacokinetics study in mice. The following applies: C57Bl/6, mouse; for clearance: iv. It is filed as in vivo.
The test system of series [2] is Hairless (Hr) gene. In words: Brain expression of Hairless. It is filed as in vivo. The following applies: mice, brain Hr expression ED50.
A short description of series [3]: Ester-to-amide. It is filed as physicochemical. The following applies: for Rearrangement of ester to amide in dosing vehicle: 50% DMSO in saline; for Rearrangement of ester to amide product: polar, protic solvents / aqueous HPLC conditions.
For series [4] the following is noted: in vivo.

As for `Cc1cc(OCC(=O)O[C@@H](C)CN)cc(C)c1Cc1ccc(O)c(C(C)C)c1` [Compound 3, (S)-1-aminopropan-2-yl 2-(4-(4-hydroxy-3-isopropylbenzyl)-3,5-dimethylphenoxy)acetate], in series [1] (in vivo), the “Amount of sobetirome from cleavage of 3 in blood, oral vs intravenous dosing” value came to 2.4 fold and the clearance was 28 mL/min/kg. Also, the “Fold increase in potency compared to sobetirome” value in series [2] was around 2 fold. Moreover, the “Species in chromatogram on re-sampling the same solution” value in series [3] (aqueous HPLC sample, approximately 30 minutes later) is listed as “showed only the amide 3b”. Further, in series [3] (aqueous HPLC sample/run conditions, within 5 minutes of running), the “Fraction of ester converted to amide” value is on record as “approximately 25%”. In series [4] (male, C57Bl/6, mouse), the “Fold increase of sobetirome exposure (AUC) in brain vs equimolar sobetirome” value is ~ 2 fold, the “Fold reduction of parent drug exposure in heart vs equimolar sobetirome” value is listed as ~ 3 fold, the “Fold reduction of parent drug exposure in kidney vs equimolar sobetirome” value was ~ 2 fold and the “Fold reduction of parent drug exposure in liver vs equimolar sobetirome” value is on record as ~ 2 fold. For the same compound, in series [4] (male, C57Bl/6, mouse), the “Fold reduction of parent drug exposure in serum vs equimolar sobetirome” value is on record as ~ 3.5 fold. Besides, the “Time of Cmax / Tmax in all tissues analyzed” value in series [4] (mouse, ip) is 15 to 30 min.
With `CNCC(OC(=O)COc1cc(C)c(Cc2ccc(O)c(C(C)C)c2)c(C)c1)C(C)C` (centres unmarked) [Compound 12, 3-methyl-1-(methylamino)butan-2-yl 2-(4-(4-hydroxy-3-isopropylbenzyl)-3,5-dimethylphenoxy)acetate], in series [3], the “Rearrangement of ester to amide in dosing vehicle” value (from here on “Rearrangement … in dosing vehicle”) is given as “do not rearrange to amides” and the “Rearrangement of ester to amide product” value is given as “did not display rearrangement to the amide product”.
Compound `Cc1cc(OCC(=O)O)cc(C)c1Cc1ccc(O)c(C(C)C)c1` [Compound 1, Sobetirome, reference compound] showed a clearance in series [1] (serum, 3.05 μmol/kg) of 8 mL/min/kg.
For the compound `Cc1cc(OCC(=O)OC(CN)C(C)C)cc(C)c1Cc1ccc(O)c(C(C)C)c1` (centres unmarked) [Compound 11, 1-amino-3-methylbutan-2-yl 2-(4-(4-hydroxy-3-isopropylbenzyl)-3,5-dimethylphenoxy)acetate], in series [3], the “Rearrangement … in dosing vehicle” value is given as “do not rearrange to amides” and the “Rearrangement of ester to amide product” value was “did not display rearrangement to the amide product”.
For the compound “2-(methylamino)ethyl 2-(4-(4-hydroxy-3-methylbenzyl)-3,5-dimethylphenoxy)acetate [Compound 13]”, the “Rearrangement of ester to amide product” value in series [3] is “freely rearrange to their corresponding tertiary amides”.
For `CNCC(C)OC(=O)COc1cc(C)c(Cc2ccc(O)c(C(C)C)c2)c(C)c1` (centres unmarked) [Compound 7, 1-(methylamino) propan-2-yl 2-(4-(4-hydroxy-3-isopropylbenzyl)-3,5-dimethylphenoxy) acetate], the “Rearrangement of ester to amide product” value in series [3] is listed as “freely rearrange to their corresponding tertiary amides”.
As for `Cc1cc(OCC(=O)OC2(C(F)(F)F)CNC2)cc(C)c1Cc1ccc(O)c(C(C)C)c1` [Compound 15], in series [3], the “Rearrangement … in dosing vehicle” value is reported as “do not rearrange to amides” and the “Rearrangement of ester to amide product” value is recorded as “did not display rearrangement to the amide product”.
